Laboratory results taken from patent publication US20260008780A1, “SUBSTITUTED 3,4-DIHYDROISOQUINOLIN-1(2H)-ONE DERIVATIVES AND RELATED USES” (NodThera Limited, priority 2022, published 2026).

tested on: IL-1β release upon NLRP3 activation in peripheral blood mononuclear cells (PBMC); assay: PBMC IC50 Determination Assay; assay type: cell-based; details: Homo sapiens; PBMC from buffy coats, LPS 3 h, compound 30 min, then ATP (5 mM) or nigericin (10 μM) 1 h; IL-1β in media by ELISA (Protocol A) or HTRF (Protocol B)
Procedure: The compounds of the present disclosure were tested for their inhibitory activity against IL-1β release upon NLRP3 activation in peripheral blood mononuclear cells (PBMC).
Protocol A. PBMC were isolated from buffy coats by density gradient centrifugation on Histopaque-1077 (Sigma, cat no. 10771). Isolated cells were seeded into the wells of a 96-well plate and incubated for 3 h with lipopolysaccharide (LPS). Following medium exchange, the compounds of the present disclosure were added (a single compound per well) and the cells were incubated for 30 min. Next, the cells were stimulated either with ATP (5 mM) or nigericin (10 μM) for 1 h and the cell culture media from the wells were collected for further analysis.
The release of IL-1β into the media was determined by a quantitative detection of IL-1β in the media using an IL-1p enzyme-linked immunosorbent assay (ELISA) Ready-SET-Go!, eBioscience cat. No. 88-7261-88. Briefly, in a first step, high affinity binding plates (Corning, Costar 9018 or NUNC Maxisorp Cat No. 44-2404) were coated overnight at 4° C. with specific capture antibody included in the kit (anti-human IL-1β ref 14-7018-68). Subsequently, plates were blocked with blocking buffer for 1 h at room temperature (rt) and after washing with a buffer (PBS with 0.05% Tween-20) incubated with protein standard and culture media. After 2 h of incubation at rt, plates were washed and incubated with biotinylated detection antibody included in the kit (anti-human IL-1β Biotin ref. 33-7110-68) for 1 h at rt. Plates were washed and incubated with HRP-streptavidin for 30 min at rt and washed again. The signal was developed after addition of 3,3′,5,5′-tetramethylbenzidine-peroxidase (TMB) until colour appeared and the reaction was stopped by 2 M H2SO4. A microplate spectrophotometer (BioTek) was used to detect signals with 450 nm. The detection range of IL-1β ELISA was […].
Protocol B. PBMC were isolated from buffy coats by density gradient centrifugation on Histopaque-1077 (Sigma, cat no. 10771). Isolated cells were seeded into the wells (280,000 cells/well) of a 96-well plate and incubated for 3 h with lipopolysaccharide (LPS, 1 μg/mL diluted 1000× from a 1 mg/mL stock solution). The compounds of the present disclosure were added (a single compound per well) and the cells were incubated for 30 min. Next, the cells were stimulated with ATP (5 mM final concentration diluted 20× from a 100 mM stock solution) for 1 h and the cell culture media from the wells were collected for further analysis.
The release of IL-1β into the media was determined by quantitative detection of IL-1β in the media using HTRF®, CisBio cat. No. 62HIL1BPEH. Briefly, cell culture supernatant were dispensed directly into the assay plate containing antibodies labelled with the HTRF® donor and acceptor. A microplate spectrophotometer (BMG) was used to detect signals at 655 nm and 620 nm. The detection range of IL-1β HTRF® was 39-6500 μg/mL.

Row | Structure (SMILES) | IC50 [nM]
1 | CCNc1nc2c(s1)C(=O)N(CC(=O)Nc1ncccn1)CC2C (centres unmarked) [Compound 73, 2-(2-(Ethylamino)-7-methyl-4-oxo-6,7-dihydrothiazolo[5,4-c]pyridin-5(4H)-yl)-N-(pyrimidin-2-yl)acetamide] | 10000 to 50000
2 | CNc1cc2c(s1)C(=O)N(CC(=O)Nc1ncccn1)CC21CC1 [Compound 74, 2-(2′-(Methylamino)-7′-oxo-5′H-spiro[cyclopropane-1,4′-thieno[2,3-c]pyridin]-6′(7′H)-yl)-N-(pyrimidin-2-yl)acetamide] | 100 to 1000
3 | O=C(CN1CC2(CC2)c2cc(CC(F)F)sc2C1=O)Nc1ncccn1 [Compound 75, 2-(2′-(2,2-Difluoroethyl)-7′-oxo-5′H-spiro[cyclopropane-1,4′-thieno[2,3-c]pyridin]-6′(7′H)-yl)-N-(pyrimidin-2-yl)acetamide] | 1000 to 3000
4 | O=C(CN1CC2(CC2)c2cc(C3CC3)sc2C1=O)Nc1ncc(F)cn1 [Compound 76, 2-(2′-Cyclopropyl-7′-oxo-5′H-spiro[cyclopropane-1,4′-thieno[2,3-c]pyridin]-6′(7′H)-yl)-N-(5-fluoropyrimidin-2-yl)acetamide] | 100 to 1000
5 | C[C@@H]1CN(CC(=O)Nc2ncccn2)C(=O)c2sc(C3CC3)nc21 [Compound 77] | 1000 to 3000
